According to US6534277B1, “Method for identifying a compound to be tested for an ability to reduce immune rejection by determining Stat4 and Stat6 proteins” (Millennium Pharmaceuticals, Inc., priority 2000, dated 2003):
Entries after “also recorded” stand apart in the source; their conditions may differ.

Key:
[1] = system: CD154 expression by CD3 mAb-activated CD4+ splenic T cells; experiment: Activation-induced CD154 expression by CD4+ T cells, dual color flow cytometry; format: cell-based, mouse; settings: 7 hr, plate-bound CD3 mAb; for effect on activation-induced CD154 expression, in words: drug concentrations as b343 (10 μM lactacystin, 10 μM MG-273); for suppression (inhibition) of activation-induced CD154 expression: 125 ng/ml cyclosporin A, 20 ng/ml rapamycin, 100 μg/ml methylprednisolone, 1 μM mycophenolate mofetil, three experiments
Description: Six-well plates (Costar) were pre-coated overnight with 1 μg/ml of […] anti-mouse CD3 mAb (2C11). After washing with media (RPMI supplemented with 10% fetal bovine serum, 50 U/ml penicillin, 50 μg/ml streptomycin, 2 mM glutamine and 50 μM 2-mercaptoethanol) one ml of media containing 2× final drug concentration was added to each well. After testing of a range of concentrations of each agent, the optimal final physiologic drug concentrations for the data to be reported were 125 ng/ml cyclosporin A, 20 ng/ml rapamycin. 100 μg/ml methylprednisolone, 1 μM mycophenolate mofetil, 10 μm lactacystin and 10 μM MG-273. Cells were obtained from mechanically disrupted spleens and, after collection by centrifugation and washing once with media, one ml aliquots containing two million viable splenocytes were added to each well. Cultures were incubated at 37° C. in 5% CO2 for 7 hr. and were then diluted two-fold with chilled media containing 0.1% sodium azide (FACS media). Cells were collected by centrifugation at 4° C., resuspended in FACS media containing 1 μg Fc Block (PharMingen) and incubated on ice for 15 min. Samples were then split and either a mixture of 1 μg each of FITC-conjugated CD4-specific mAb and PE-conjugated control hamster IgG mAb or FITC-conjugated CD4-specific mAb and PE-conjugated CD154-specific mAb were added. After a 30 min incubation on ice, cells were washed twice and analyzed on a Becton Dickinson FACScan using Cell Quest software. Viable CD4+ lymphocytes were gated using a combination of forward/side scatter and CD4 staining.

[2] = system: BALB/c cardiac allograft in B6/129 wild-type mice; experiment: Heterotopic cardiac allograft survival, BALB/c donors into B6/129 wild-type recipients; format: in vivo, mouse; settings: with CD154 mAb/DST, rapamycin 0.2 mg/kg/d i.p., cyclosporin A 10 mg/kg/d i.p., methylprednisolone 1 mg/kg i.p., PS-519 1 mg/kg/d i.p., p<0.001
Description: Heterotopic cardiac allografting was performed with anastomoses to the abdominal aorta and vena cava (Hancock et al., 1998, Nature Medicine 4:1392-1396), using BALB/c donors and B6/129 wild-type or […] mice as recipients. Recipients were treated with hamster IgG or hamster anti-mouse (CD40L mAb; 250 μg, administered intravenously) plus DST (5×10^6 splenic mononuclear cells) at the time of transplantation (Hancock et al., 1998, Nature Medicine 4:1392-1396).
Heterotopic cardiac allografting was performed with anastomoses to the abdominal aorta and vena cava (Hancock, W. W. et al., 1998, Nature Medicine 4:1392-1396), using BALB/c donors and B6/129 wild-type or NF-κB/p50 KO mice as recipients (n=6/group). Recipients were treated with hamster IgG or hamster anti-mouse CD154 mAb (250 μg, i.v.) plus DST (“donor specific transfusion”; 5×10^6 splenic mononuclear cells) at the time of transplantation (Hancock, W. W. et al., 1998, Nature Medicine 4:1392-1396). […] Graft survival was monitored by daily palpation, and rejection was confirmed by laparotomy and histologic evaluation.
Heterotopic cardiac allografting was performed with anastomoses to the abdominal aorta and vena cava, using BALB/c donors and B6/129 wild-type or Stat-6 KO mice as recipients (n=6/group). […] Graft survival was monitored by daily palpation and rejection was confirmed by laparotomy and histologic evaluation.

Structure (SMILES): CC(C)C[C@H](NC(=O)[C@H](Cc1cccc2ccccc12)NC(=O)N1CCOCC1)B(O)O [MG-273]
- effect on activation-induced CD154 expression, in words [1]: significantly decreased; also recorded: significantly blocked

Structure (SMILES): CCC[C@H]1C(=O)N[C@@]2([C@@H](O)C(C)C)C(=O)O[C@@H]12 [PS-519]
- effect of concomitant agent on the effects (efficacy) of CD154 mAb therapy on allograft survival ([2]; listed as lactacystin-derived (LC) proteasome inhibitor): significantly impaired
- effect of concomitant agent on the effects (efficacy) of CD154 mAb therapy on allograft survival ([2]; listed as proteasome inhibitor): blocked

Structure (SMILES): C[C@H]1C[C@@H]2[C@H]([C@@H](O)C[C@@]3(C)[C@H]2CC[C@]3(O)C(=O)CO)[C@@]2(C)C=CC(=O)C=C12 [methylprednisolone, 6α-methylprednisolone]
- suppression (inhibition) of activation-induced CD154 expression [1]: > 90%

Structure (SMILES): COc1c(C)c2c(c(O)c1C/C=C(\C)CCC(=O)OCCN1CCOCC1)C(=O)OC2 [mycophenolate mofetil]
- suppression (inhibition) of activation-induced CD154 expression [1]: < 10%
- effect on activation-induced CD154 expression, in words [1]: complete lack of effect

Structure (SMILES): CO[C@H]1C[C@@H]2CC[C@@H](C)[C@@](O)(O2)C(=O)C(=O)N2CCCC[C@H]2C(=O)O[C@H]([C@H](C)C[C@@H]2CC[C@@H](O)[C@H](OC)C2)CC(=O)[C@H](C)/C=C(\C)[C@@H](O)[C@@H](OC)C(=O)[C@H](C)C[C@H](C)/C=C/C=C/C=C/1C [rapamycin]
- suppression (inhibition) of activation-induced CD154 expression [1]: < 20%
